Test results reported in patent US8334316B2, “Substituted organosulfur compounds and methods of using thereof” (ACEA Biosciences, Inc., priority 2004, dated 2012).

Test system: human cancer cell lines (H460, MV522, MCF7, A549, PC3, A431, HT1080, MDA-231, HT29, HCC2998, OVCAR4, A2780)
Assay: RT-CES system, panel of human cancer cell lines treated with dibenzyl trisulfide
Assay type: cell-based
Details: 1.5625-100 μM; FIGS. 1-5, 6A, 7-12
Text: The RT-CES system comprises three components, an electronic sensor analyzer, a device station and 16× or 96× microtiter plate devices. Microelectrode sensor array was fabricated on glass slides with lithographical microfabrication methods and the electrode-containing slides are assembled to plastic trays to form electrode-containing wells. Each 16× (or 96×) microtiter plate device used in RT-CES system comprises up to 16 (or 96) such electrode-containing wells. The device station receives the 16× or 96× microtiter plate devices and is capable of electronically switching any one of the wells to the sensor analyzer for impedance measurement. […] Under the RT-CES software control, the sensor analyzer can automatically select wells to be measured and continuously conduct impedance measurements. The impedance data from the analyzer is transferred to a computer, analyzed and processed by the integrated software.
To quantify cell status based on the measured cell-electrode impedance, a parameter termed Cell Index is derived, according to
[formula] where Rb(f) and Rcell(f) are the frequency dependent electrode resistances (a component of impedance) without cells or with cell present, respectively. N is the number of the frequency points at which the impedance is measured. Thus, Cell Index is a quantitative measure of the status of the cells in an electrode-containing well. […]

c1ccc(CSSSCc2ccccc2)cc1 [DBTS, Dibenzyl trisulfide]
Effect on proliferation of cancer cell lines (time-dependent cell index): exhibited inhibitory effect on the proliferation of a number of cancer cell lines
